In patent US20110076230A1, “Novel Substituted Indoles” (priority 2008, published 2011) one finds IC50 data, which are given here for four molecules.

The structures appear in SMILES notation.

The target of this test is human AD brain homogenates (Homo sapiens, UniProt P05067). Description: Tissue homogenate binding assay (competition with [3H]-DMAB). The conditions noted are these: human AD brain (frontal cortex) tissue homogenate; radioligand [3H]-DMAB 1.5 nM; 90 minutes at room temperature. How it is done: Homogenates from AD and non-AD human brain samples were assessed for their immunoreactivity to anti-Aβ antibody 6E10. The highest and lowest levels of 6E10 immunoreactivity were chosen for the AD group and the non-AD control group, respectively. Candidate Aβ compounds were initially selected based on their structural similarity to published amyloid ligands and then for high affinity in competing with [^3H]PIB binding to AD brain homogenates. These compounds were radiolabeled with [^3H] and tested for binding affinity to human AD brain homogenates as well as binding to human non-AD brain homogenates. [^3H]-DMAB (see structure below) was selected based from these candidates based on its binding affinity for human AD brain homogenates, and minimal binding to non-AD control homogenates. A low fraction of non-displaceable binding was also an important criterion.
human AD brain homogenates, sequence (P05067 672-711 limits assumed): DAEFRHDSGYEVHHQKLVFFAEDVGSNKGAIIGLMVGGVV
PET radiotracer candidate compounds were then selected based on their high affinity competition with [^3H]-DMAB in binding to AD brain homogenates. These PET radiotracer candidate compounds were tested to determine if they were effective PgP substrates. Those PET radiotracer candidate compounds with little PgP substrate activity were radiolabeled with [^3H] or [^18F] and tested for binding affinity to human AD brain homogenates as well as binding to human non-AD brain homogenates and in autoradiographic studies using human AD and non-AD brain slices. Candidate radioligands were selected based on their strong binding affinity for human AD brain homogenates, and minimal binding to non-AD control homogenates. A low fraction of non-displaceable binding was also an important criterion. Minimization of white matter binding was an important criterion.
Postmortem frozen human brain samples from donors with clinical diagnosis of Alzheimer's diseases (AD) or normal control subjects (non-AD) were purchased from Analytical Biological Services Inc., at 701-4 Cornell Business Park, Wilmington, Del. […]
[^3H]-DMAB was synthesized at a specific activity of ˜80 Ci/mmol. […] Total binding was defined in the absence of competing compound, and non-displaceable binding was determined in the presence of 1 μM unlabeled self block. […] Incubation was carried out at room temperature (25° C.) for 90 minutes, and then the assay samples were filtered onto GF/C filters using Skatron 12 well harvester, washing on setting 5−5−5 ((˜3×2 ml) ice cold buffer (PBS, pH 7.4). GF/C filter papers for the Skatron harvester were pre-soaked in 0.1% BSA for 1 hour at room temperature before use. Filters were punched into scintillation vials and counted in 2 mL Ultima Gold on Perkin Elmer Tri-Carb 2900TR for 1 minute. The data analysis was done with Prism software. All assays were done in triplicate, and in the laboratory designated for studies using human tissues.
The molecule `Cc1ccc2cc(-c3ccc(-n4ccnc4)nc3)[nH]c2c1` yielded an IC50 of 245 nM.

In turn, `CNc1ccc(-c2cc3ccc(Cl)cc3[nH]2)cn1` had a half-maximal inhibitory concentration (IC50) of 40 nM.

`COc1ccc2[nH]c(-c3ccc(-n4cncn4)nc3)cc2c1`: the IC50 came out at 10 nM.

`N#Cc1ccc2cc(-c3cnc4[nH]ccc4c3)[nH]c2c1` registered an IC50 of 79 nM.
